Source: publication PMC8878463, “Biological Activity and Stability of Aeruginosamides from Cyanobacteria” (Marine Drugs, 2022)
pIC50: −log10 of the molar value.

Assays:
[1] = In vitro S9 stability assay (LC-MS/MS); format: in vitro ADME, human; conditions: for change of concentration in heat-denatured S9 fraction: heat-denatured (deactivated) S9 fraction; for change of concentration in heat-denatured S9 fraction / change of concentration in active S9 fraction: up to 60 min
Description: Human S9 liver fraction (catalogue no. HMS9PL, lot no. PL045-A) (protein content 20 mg mL^−1), containing a mixture of microsomal and cytosol enzymes, was used (Thermo Fisher Scientific, Waltham, MA USA) together with the following activating cofactors: NADPH (Alfa Aesar, Wart Hill, MA, USA), UDPGA (Merck KGaA; Darmstadt, Germany) and GSH (Merck, Darmstadt Germany). All cofactors (20 mM) and the analysed AEGs (3 µM) were prepared in 1% DMSO, the reaction was performed in a buffer (200 mM Tris (Merck KGaA, Darmstadt, Germany), 2 mM MgCl2 and 1M NaOH (Avantor Performance Materials Poland S.A., Gliwice, Poland); pH 7.4) 7-etoxycoumarine (7-EC; 3 µM in 20% DMSO) (Merck KGaA, Darmstadt, Germany) was used as a positive control. Tubes with 236 µL of buffer and 24 µL of S9 fraction were prepared in duplicates. Half of the samples was kept on ice, while the other half was deactivated by heating at 80 °C for 10 min and then cooled to room temperature. Cofactors were mixed (1:1:1) and 120 µL of the mixture, together with 20 µL of 7-EC were added to all samples. The aliquots (25 µL) of the samples were withdrawn at 0, 15, 30, 45, and 60 min, and 50 µL of an ice-cold ACN:MeOH (50:50) was added to stop the reaction. The samples were centrifuged (10,000× g, 4 °C, 10 min) and the supernatants were analysed by LC-MS/MS. The test was repeated twice. The elimination half-life was calculated as in Wen and Walle.
LC-MS/MS analyses were performed using an Agilent 1200 (Agilent Technologies, Waldboronn, Germany) chromatographic system coupled with a hybrid triple quadrupole/linear ion trap mass spectrometer (QTRAP5500, Applied Biosystems, Sciex, Concorde, ON, Canada) as a detector. AEGs were separated in a Zorbax Eclipse XDB-C18 column (4.61 mm × 150 mm; 5 µm) (Agilent Technologies, Santa Clara, CA, USA). The composition of the mobile phase was the same as in preparative chromatography. For analysis of the collected chromatographic fractions, the gradient changed from 15% B to 99% B over 20 min (flow rate 0.6 mL min^−1). The Turbo IonSource operated in positive ionisation mode at capillary voltage of 5.5 kV and source temperature of 550 °C. Cone gas pressure and desolvation gas pressure were 60 psi, declustering potential was 80 V, and collision energy was 60 ± 20 eV. Q3-information-dependent analysis (IDA) and enhanced product ion (EPI) modes were used. The IDA threshold was set at 500,000 cps, and the m/z range was 400–1000. The scan rate was 2000 amu s^−1, and the linear ion trap fill time 50 ms. For analysis of AEGs and 7-EC, the chromatographic gradient changed from 15% B to 25% B in 5 min, then to 99% B in the next 5 min (0.6 mL min^−1). MS operated in multiple reaction monitoring mode at collision energy CE 50 V and with the following transitions: 191 → 163, 119, 107 (q), 91 (for 7-EC); 561 → 222, 186, 86 (q) (for AEG A); 626 → 296, 136 (q), 70 (for AEG 625) and 658 → 296, 199 (q), 120 (for AEG 657). To determine the changes in AEGs concentrations, the peak areas of the most intensive ions (q) were measured.

[2] = molecular target: CYP2D6 (Homo sapiens, UniProt P10635); experiment: Vivid CYP450 screening kit, CYP2D6 Blue
Chain of CYP2D6 (P10635 whole entry): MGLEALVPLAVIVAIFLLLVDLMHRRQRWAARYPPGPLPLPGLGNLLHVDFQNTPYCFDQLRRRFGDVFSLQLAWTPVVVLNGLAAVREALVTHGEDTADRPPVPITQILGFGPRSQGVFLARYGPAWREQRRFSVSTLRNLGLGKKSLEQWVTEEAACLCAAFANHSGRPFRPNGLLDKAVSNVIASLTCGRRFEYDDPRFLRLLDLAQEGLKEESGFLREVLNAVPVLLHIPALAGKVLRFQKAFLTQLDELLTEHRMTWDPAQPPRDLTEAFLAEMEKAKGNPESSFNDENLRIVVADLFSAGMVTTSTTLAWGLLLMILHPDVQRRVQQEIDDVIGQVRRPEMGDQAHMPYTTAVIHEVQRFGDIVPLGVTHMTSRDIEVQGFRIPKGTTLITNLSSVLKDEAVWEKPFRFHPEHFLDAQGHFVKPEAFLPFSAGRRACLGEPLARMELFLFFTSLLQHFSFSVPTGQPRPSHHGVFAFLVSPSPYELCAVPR
Description: (§2) The following commercially available Vivid® CYP450 Screening Kits were performed according to the instruction supplied by the manufacturer (Thermo Fisher Scientific, Waltham, MA, USA): Vivid® CYP2C9 Blue (cat. no. P2861), Vivid® CYP2D6 Blue (cat. no. P2972) and Vivid® CYP3A4 Blue (cat. no. P2857). […] After adjustment to room temperature, the Vivid substrate was dissolved in anhydrous acetonitrile (10 µM), and the fluorescence standard was dissolved in DMSO (100 µM). The test compounds and inhibitors were diluted with the Vivid® CYP450 reaction buffer. […] In the subsequent steps, 5 µL solutions of test compounds, inhibitors and solvent were added to the wells. Then, 5 µL of Master Pre-Mix (mixture of Reagent, Regeneration System and the Reaction Buffer) was dispensed to each well. After 10 min incubation at room temperature, the reaction was started by the addition of 5 µL of a mixture composed of Vivid® Substrate and NADP^+. Tests were performed in endpoint mode using 384-well plates. […] The test was performed with three replicates at each concentration.

[3] = tested on: human breast adenocarcinoma cell line T47D; experiment: MTT cytotoxicity assay; format: cell-based; conditions: 40 µM, 24 h
Description: MTT (3-(4,5-dimethylthiazol-2-yl)-2,5-diphenyltetrazolium-bromide) assay was performed according to Felczykowska et al.. Briefly, cytotoxicity assessment was conducted against human breast adenocarcinoma cell line T47D obtained from the European Collection of Authenticated Cell Cultures (ECACC) through Merck KGaA (Darmstadt, Germany). Cells were cultured in 96-well plates using RPMI1640 medium (Carl Roth GmbH, Karlsruhe, Germany) supplemented with a fetal bovine serum (10% v/v; Sigma-Aldrich by Merck KGaA, Darmstadt, Germany) and penicillin-streptomycin solution (1% v/v, stock solution 50 u and 0.05 mg mL^−1, respectively; Merck KGaA, Darmstadt, Germany) at 1 × 10^4 cells per well and incubated for 24 h. After the addition of the tested compounds (40, 80, 160 and 320 µM) dissolved in 1% DMSO, samples were incubated for another 24 h. Then, MTT reagent was added (25 µL at 4 mg mL^−1 in PBS; Merck KGaA; Darmstadt, Germany) and the samples were incubated for 4 h. Lastly, formazan crystals were dissolved in 100% DMSO and absorbance was measured using a microplate reader (Spectramax i3, Molecular Devices, LLC San Jose, CA, USA). Cell viability was calculated as the ratio of the mean absorbance value measured in two independent assays, for the three replicates containing the samples, to the mean absorbance of the three replicates of the corresponding solvent control and expressed as a percentage.

[4] = tested on: MIR92b-3p in Huh7-pmirGLO-92b cells; experiment: Dual-luciferase reporter assay for inhibitors of MIR92b-3p function; format: cell-based, human; conditions: 100 µM, 24 h
Description: In this study, the reporter assays for small-molecule inhibitors of the MIR92b-3p function, previously designed to screen Nostoc peptides, were used. The screen employs a Huh7 human hepatoma cell line (Cell Lines Service GmbH, CLS; Eppelheim, Germany) stably transfected with a pmirGLO vector containing dual-luciferase reporters. Briefly, for the chemical screening of AEGs, Huh7-pmirGLO-MIR92b-3p cells were seeded at 10,000 cells per well in white, 96-well plates (Thermo Fisher Scientific, Waltham, MA, USA). After overnight incubation, the medium was removed and replaced with 100 μL of RPMI1640 (Merck, KGaA, Darmstadt, Germany), supplemented with increasing concentrations of AEGs, ranging from 10 nM to 100 μM, with three replicates at each concentration. Cells were incubated for 24 h and then analysed with a dual-luciferase Reporter Assay Kit (Promega, Madison, WI, USA). Relative luciferase activity was calculated using the ratio of firefly (F) and Renilla (R) luciferase activity (F/R).

[5] = tested on: Huh7 cells; experiment: CellTiter-Glo cell viability assay; format: cell-based, human; conditions: 24 h; for effect on Huh7 cell viability: 10 nM to 100 µM; for mean luciferase expression (relative luminescence), cell viability: normalized to untreated cells
Description: (§1) To determine cell viability and ROS level, Huh7 cells were seeded at 10,000 cells per well in white 96-well plates. After overnight incubation, the medium was removed and replaced with 100 μL of RPMI1640 supplemented with increasing concentrations of AEGs ranging from 10 nM to 100 μM (cell viability) or ranging from 1 µM to 100 μM (ROS), with three replicates at each concentration. After incubation for 24 h, cells viability was examined using a Cell Titer-Glo Luminescent Cell Viability Assay (Promega, Madison, WI, USA) and ROS was measured using a ROS-Glo H2O2 Assay (Promega, Madison, WI, USA).

[6] = tested on: ROS (reactive oxygen species) levels in Huh7 cells; experiment: ROS-Glo H2O2 assay; format: cell-based, human; conditions: 1 µM to 100 µM, 24 h, concentration-dependent
Description: as §1

[7] = molecular target: T1, CYP3A4 (Homo sapiens, UniProt P08684); experiment: Vivid CYP450 screening kit, CYP3A4 Blue; format: biochemical; conditions: for effect on CYP3A4 activity: up to 60 µM
T1 construct: purchased Thermo Fisher Scientific P2857; host or cells: baculovirus expression system (insect cell microsomes)
T1 sequence (P08684 2-503 limits assumed): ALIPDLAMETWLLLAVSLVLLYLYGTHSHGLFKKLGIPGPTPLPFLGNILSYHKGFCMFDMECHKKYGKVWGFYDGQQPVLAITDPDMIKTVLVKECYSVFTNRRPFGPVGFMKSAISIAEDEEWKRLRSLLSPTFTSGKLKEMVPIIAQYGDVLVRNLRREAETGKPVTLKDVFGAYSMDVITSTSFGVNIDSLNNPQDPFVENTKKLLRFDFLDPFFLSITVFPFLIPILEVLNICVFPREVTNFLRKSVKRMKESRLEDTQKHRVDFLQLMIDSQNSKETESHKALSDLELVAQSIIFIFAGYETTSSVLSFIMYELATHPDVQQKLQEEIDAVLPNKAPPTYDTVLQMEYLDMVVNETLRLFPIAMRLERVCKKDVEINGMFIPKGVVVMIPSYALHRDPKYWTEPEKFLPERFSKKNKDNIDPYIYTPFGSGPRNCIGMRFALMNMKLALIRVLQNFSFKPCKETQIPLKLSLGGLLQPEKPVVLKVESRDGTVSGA
Description: The following commercially available Vivid® CYP450 Screening Kits were performed according to the instruction supplied by the manufacturer (Thermo Fisher Scientific, Waltham, MA, USA): Vivid® CYP2C9 Blue (cat. no. P2861), Vivid® CYP2D6 Blue (cat. no. P2972) and Vivid® CYP3A4 Blue (cat. no. P2857). The CYP450 BACULOSOMES Plus Reagent (with the recombinant human cytochrome P450 and human cytochrome 450 reductases), Vivid Regeneration System (333 mM glucose-6-phosphate and 30 U mL^−1 glucose-6-phosphate dehydrogenase in 100 mM K3PO4, pH 8.0), and Vivid NADP^+ (10 mM NADP^+ in 100 mM K3PO4, pH 8.0) were thawed at room temperature and kept on ice until use. After adjustment to room temperature, the Vivid substrate was dissolved in anhydrous acetonitrile (10 µM), and the fluorescence standard was dissolved in DMSO (100 µM). The test compounds and inhibitors were diluted with the Vivid® CYP450 reaction buffer. […] In the subsequent steps, 5 µL solutions of test compounds, inhibitors and solvent were added to the wells. Then, 5 µL of Master Pre-Mix (mixture of Reagent, Regeneration System and the Reaction Buffer) was dispensed to each well. After 10 min incubation at room temperature, the reaction was started by the addition of 5 µL of a mixture composed of Vivid® Substrate and NADP^+. Tests were performed in endpoint mode using 384-well plates. Excitation wavelength was 415 nm and emission was measured at 460 nm, at the start of the test and after 60 min. The test was performed with three replicates at each concentration.

[8] = molecular target: CYP2C9 (Homo sapiens, UniProt P11712); experiment: Vivid CYP450 screening kit, CYP2C9 Blue; conditions: for reduction of CYP2C9 activity: 60 µM, 60 min incubation
Chain of CYP2C9 (P11712 whole entry): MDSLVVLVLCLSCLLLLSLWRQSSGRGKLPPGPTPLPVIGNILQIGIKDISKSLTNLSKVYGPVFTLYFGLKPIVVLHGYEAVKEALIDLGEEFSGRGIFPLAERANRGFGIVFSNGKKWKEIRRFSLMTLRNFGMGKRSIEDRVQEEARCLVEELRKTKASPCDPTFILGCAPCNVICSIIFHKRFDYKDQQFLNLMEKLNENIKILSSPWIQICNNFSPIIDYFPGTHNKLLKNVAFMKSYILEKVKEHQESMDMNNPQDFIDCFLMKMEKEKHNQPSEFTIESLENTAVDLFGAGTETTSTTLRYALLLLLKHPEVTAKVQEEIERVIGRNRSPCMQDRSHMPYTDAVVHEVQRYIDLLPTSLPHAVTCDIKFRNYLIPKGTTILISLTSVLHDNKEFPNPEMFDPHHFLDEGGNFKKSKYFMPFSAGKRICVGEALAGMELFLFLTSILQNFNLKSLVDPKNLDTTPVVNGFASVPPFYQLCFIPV
Description: as §2

[9] = tested on: A2780 human ovarian tumour cells; parameters: method as in PMID 34237867; conditions: previous study; read-out: IC50 cytotoxic activity, A2780; cited from earlier work
[10] = tested on: K562 human leukaemia cells; parameters: method as in PMID 34237867; conditions: previous study; read-out: IC50 cytotoxic activity, K562; cited from earlier work
[11] = active S9 fraction, 60 min, 3 µM
[12] = human, recombinant CYP2D6 (CYP450 BACULOSOMES Plus Reagent), probe Vivid CYP2D6 Blue substrate

Structure (SMILES): CCOc1ccc2ccc(=O)oc2c1 [7-EC, 7-etoxycoumarin, reference compound]
- elimination half-life t1/2 ([1]; active S9 fraction with NADPH, UDPGA, GSH): 38.7 min
- concentration remaining, % of initial value [1, 11]: 28.6%
- change of concentration in heat-denatured S9 fraction [1]: no changes were observed

Structure (SMILES): C=C[C@H]1C[N@@]2CC[C@H]1C[C@@H]2[C@@H](O)c1ccnc2ccc(OC)cc12 [Quinidine, reference compound]
- inhibition at 60 min, 60 µM ([2]; human): 96.2%

Structure (SMILES): C=CC(C)(C)NC(Cc1ccc(O)cc1)C(=O)NC(C(=O)N1CCCC1C(=O)N1CCCC1c1nc(C(=O)O)cs1)C(C)C (stereo not drawn) [AEG625]
- inhibition of T47D viability [3]: 48%
- luciferase signal intensity (MIR92b-3p reporter) [4]: slight increase in signal intensity
- effect on Huh7 cell viability [5]: no apparent effect
- mean luciferase expression (relative luminescence), cell viability ([5]; 50 µM): 0.73 (SD = 0.47)
- mean luciferase expression (relative luminescence), cell viability ([5]; 100 µM): 0.70 (SD = 0.27)
- change of ROS levels in Huh7 cells [6]: twofold
- change of concentration in active S9 fraction ([1]; active S9 fraction): neither changes in the active nor in the deactivated fraction were detected
- change of concentration in heat-denatured S9 fraction [1]: neither changes in the active nor in the deactivated fraction were detected
- effect on CYP3A4 activity [7]: No significant loss of CYP3A4 activity
- reduction of CYP2C9 activity [8]: 43.9%
- effect on CYP2D6 activity ([2]; up to 60 µM): did not induce any effects

Structure (SMILES): Nc1ccc(S(=O)(=O)Nc2ccnn2-c2ccccc2)cc1 [sulfaphenazole, reference compound]
- reduction of CYP2C9 activity [8]: 44.9%
- IC50 at 60 min ([8]; human): 6.1 µM

Structure (SMILES): C=CC(C)(C)NC(Cc1ccccc1)C(=O)NC(Cc1ccccc1)C(=O)N1CCCC1C(=O)N1CCCC1c1nc(C(=O)O)cs1 (stereo not drawn) [AEG657]
- inhibition of T47D viability [3]: 63%
- effect on Huh7 cell viability [5]: lack of significant effects
- change of concentration in active S9 fraction ([1]; active S9 fraction): neither changes in the active nor in the deactivated fraction were detected
- change of concentration in heat-denatured S9 fraction [1]: neither changes in the active nor in the deactivated fraction were detected
- CYP3A4 activity lower than in the control ([7]; 60 µM): approx. 18%
- reduction of CYP2C9 activity [8]: 40.7%
- inhibition at 60 min, 60 µM [2, 12]: 33.2%

Structure (SMILES): CCC(C)C(C(=O)NC(C(=O)N1CCCC1c1nc(C(=O)O)cs1)C(C)C)N(CC=C(C)C)CC=C(C)C (stereo not drawn) [AEG A]
- inhibition of T47D viability [3]: no effects were observed
- effect on Huh7 cell viability [5]: did not affect either of the two cancer cell lines
- concentration remaining, % of initial value ([1]; active S9 fraction, 15 min, 3 µM): 2.9%
- concentration remaining, % of initial value [1, 11]: 0.4%
- concentration remaining, % of initial value ([1]; heat-denatured S9 fraction, 15 min): 56.0%
- concentration remaining, % of initial value ([1]; heat-denatured S9 fraction, 60 min): 46.0%
- half-life at 3 µM ([1]; human, liver S9 fraction (active), pH 7.4, active S9 fraction with NADPH, UDPGA, GSH, read-out: elimination half-life t1/2): 2.48 min
- pIC50 ([7]; 60 min incubation): 5.24
- effect on CYP3A4 activity [7]: active against CYP3A4, but only at the two highest concentrations
- pIC50 [9]: 5.54
- pIC50 [10]: 5.28
- reduction of CYP2C9 activity [8]: 28.7%
- remaining CYP2D6 activity (reduced to) ([2]; 6 µM): 78.4%
- remaining CYP2D6 activity (reduced to) ([2]; 60 µM): 60.4%
- IC50 at 60 min [2, 12]: 8.6 µM
